Measurements as given in PubChem BioAssay AID1963432 (Molecular Pharmacology Branch, DTP, NCI, 2024).
Several values for one entry are separate records, joined by “and”; a condition that tells them apart may be missing. Equal values may be shown once.

System: SYO-1 complex spheroid growth, percent test/control
Assay: Anticancer human tumor SYO-1 cell line growth inhibition [Asc];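 also: compound exposure lasted 7 days after spheroids grew 3 days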;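 as to viability, T/C: 100% = DMSO vehicle control viability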
Conditions: for viability, T/C: stronger effect = lower value; active = viability on the fitted dose curve at most 10% of control; inactive = the rest
How it was run: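 Complex spheroids combining tumor cells with HUVEC endothelial cells and human MSCs, at 37 degrees C, 5% CO2; agents tested alone or combined, half-log dilutions from at or near clinical Cmax, or 10 microM if Cmax unknown.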

[1] = curve of first compound, second compound 0.01 µM
[2] = curve of first compound, second compound 0.0316 µM
[3] = curve of first compound, second compound 0.1 µM
[4] = curve of first compound, second compound 0.316 µM
[5] = curve of first compound, second compound 1 µM
[6] = second compound 0.01 µM, first compound 0.00949 µM
[7] = second compound 0.01 µM, first compound 0.03 µM
[8] = second compound 0.01 µM, first compound 0.0949 µM
[9] = second compound 0.01 µM, first compound 0.3 µM
[10] = second compound 0.0316 µM, first compound 0.00949 µM
[11] = second compound 0.0316 µM, first compound 0.03 µM
[12] = second compound 0.0316 µM, first compound 0.0949 µM
[13] = second compound 0.0316 µM, first compound 0.3 µM
[14] = second compound 0.1 µM, first compound 0.00949 µM
[15] = second compound 0.1 µM, first compound 0.03 µM
[16] = second compound 0.1 µM, first compound 0.0949 µM
[17] = second compound 0.1 µM, first compound 0.3 µM
[18] = second compound 0.316 µM, first compound 0.00949 µM
[19] = second compound 0.316 µM, first compound 0.03 µM
[20] = second compound 0.316 µM, first compound 0.0949 µM
[21] = second compound 0.316 µM, first compound 0.3 µM
[22] = second compound 1 µM, first compound 0.00949 µM
[23] = second compound 1 µM, first compound 0.03 µM
[24] = second compound 1 µM, first compound 0.0949 µM
[25] = second compound 1 µM, first compound 0.3 µM

CCN1C(C(=O)NC23CCC(C(=O)O)(CC2)CC3)C(c2cccc(Cl)c2F)C2(C(=O)Nc3cc(Cl)ccc32)C12CCCCC2 (centres undefined) + CNC(C)C(=O)NC1CN(S(=O)(=O)c2cccc(S(=O)(=O)N3CCC4CCC(C(=O)NC(c5ccccc5)c5ccccc5)N4C(=O)C(NC(=O)C(C)NC)C3)c2)CCC2CCC(C(=O)NC(c3ccccc3)c3ccccc3)N2C1=O
110 nM: IC50 [3]
115 nM: IC50 [4]
inactive: viability, T/C [6] 104% | viability, T/C [7] 95% | viability, T/C [8] 71.8% | viability, T/C [9] 13.8% | viability, T/C [10] 98.9% | viability, T/C [11] 96.6% | viability, T/C [12] 60.3% | viability, T/C [14] 99.2% | viability, T/C [15] 90.2% | viability, T/C [16] 56.5% | viability, T/C [17] 10.5% | viability, T/C [18] 102% | viability, T/C [19] 89.8% | viability, T/C [20] 59.6% | viability, T/C [21] 8.45% | viability, T/C [22] 112% | viability, T/C [23] 88.9% | viability, T/C [24] 54.7% | viability, T/C [25] 5.93%
94.9 nM: IC50 [5]
146 nM: IC50 [1]
active: viability, T/C (second compound 0.01 µM, first compound 0.949 µM) 1.75% | viability, T/C (second compound 0.01 µM, first compound 3 µM) 0.88% | viability, T/C [13] 9.46% | viability, T/C (second compound 0.0316 µM, first compound 0.949 µM) 1.09% | viability, T/C (second compound 0.0316 µM, first compound 3 µM) 0.76% | viability, T/C (second compound 0.1 µM, first compound 0.949 µM) 0.93% | viability, T/C (second compound 0.1 µM, first compound 3 µM) 0.63% | viability, T/C (second compound 0.316 µM, first compound 0.949 µM) 0.85% | viability, T/C (second compound 0.316 µM, first compound 3 µM) 0.95% | viability, T/C (second compound 1 µM, first compound 0.949 µM) 0.81% | viability, T/C (second compound 1 µM, first compound 3 µM) 0.72%
120 nM: IC50 [2]

O=C(c1ccc(F)c(F)c1Nc1ccc(I)cc1F)N1CC(O)([C@@H]2CCCCN2)C1
> 1000 nM: IC50 (curve of compound)
inactive: viability, T/C (compound 0.00316 µM) 105% and 97.6% and 106% | viability, T/C (compound 0.01 µM) 104% and 97% and 105% | viability, T/C (compound 0.0316 µM) 103% (2×) and 102% | viability, T/C (compound 0.1 µM) 108% (2×) and 102% | viability, T/C (compound 0.316 µM) 111% and 99.2% and 96.4% | viability, T/C (compound 1 µM) 104% and 106% and 101%

NC(=O)C(=Cn1cnc(-c2cc(C(F)(F)F)cc(C(F)(F)F)c2)n1)c1cncnc1 + CNC(C)C(=O)NC1CN(S(=O)(=O)c2cccc(S(=O)(=O)N3CCC4CCC(C(=O)NC(c5ccccc5)c5ccccc5)N4C(=O)C(NC(=O)C(C)NC)C3)c2)CCC2CCC(C(=O)NC(c3ccccc3)c3ccccc3)N2C1=O
inactive: viability, T/C (second compound 0.01 µM, first compound 0.000949 µM) 102% | viability, T/C (second compound 0.01 µM, first compound 0.003 µM) 101% | viability, T/C [6] 111% | viability, T/C [7] 104% | viability, T/C [8] 98% | viability, T/C [9] 47.1% | viability, T/C (second compound 0.0316 µM, first compound 0.000949 µM) 99.2% | viability, T/C (second compound 0.0316 µM, first compound 0.003 µM) 105% | viability, T/C [10] 106% | viability, T/C [11] 108% | viability, T/C [12] 102% | viability, T/C [13] 48.4% | viability, T/C (second compound 0.1 µM, first compound 0.000949 µM) 109% | viability, T/C (second compound 0.1 µM, first compound 0.003 µM) 106% | viability, T/C [14] 102% | viability, T/C [15] 97.6% | viability, T/C [16] 102% | viability, T/C [17] 42.6% | viability, T/C (second compound 0.316 µM, first compound 0.000949 µM) 103% | viability, T/C (second compound 0.316 µM, first compound 0.003 µM) 110% | viability, T/C [18] 111% | viability, T/C [19] 105% | viability, T/C [20] 105% | viability, T/C [21] 36.3% | viability, T/C (second compound 1 µM, first compound 0.000949 µM) 114% | viability, T/C (second compound 1 µM, first compound 0.003 µM) 106% | viability, T/C [22] 111% | viability, T/C [23] 105% | viability, T/C [24] 97.5% | viability, T/C [25] 23.6%
281 nM: IC50 [1]
290 nM: IC50 [2]
260 nM: IC50 [3]
238 nM: IC50 [4]
199 nM: IC50 [5]

C=CC(=O)N1CCN(c2nc(=O)n(-c3c(C)ccnc3C(C)C)c3nc(-c4c(O)cccc4F)c(F)cc23)C(C)C1 (centres undefined) + Cc1c(S(C)(=O)=O)c(-c2cc(F)cc(N3CCN(c4ccc(NS(=O)(=O)c5ccc(NC(CCN6CCC(C(=O)OCCCP(=O)(O)O)CC6)CSc6ccccc6)c(S(=O)(=O)C(F)(F)F)c5)cc4)CC3)c2)c(-c2ccc(Cl)cc2)n1C(C)C
inactive: viability, T/C (second compound 0.0316 µM, first compound 0.0316 µM) 105% | viability, T/C (second compound 0.0316 µM, first compound 0.1 µM) 100% | viability, T/C (second compound 0.0316 µM, first compound 0.316 µM) 100% | viability, T/C (second compound 0.0316 µM, first compound 1 µM) 106% | viability, T/C (second compound 0.0316 µM, first compound 3.16 µM) 103% | viability, T/C (second compound 0.0316 µM, first compound 10 µM) 90.7% | viability, T/C (second compound 0.1 µM, first compound 0.0316 µM) 114% | viability, T/C (second compound 0.1 µM, first compound 0.1 µM) 103% | viability, T/C (second compound 0.1 µM, first compound 0.316 µM) 93.4% | viability, T/C (second compound 0.1 µM, first compound 1 µM) 99.9% | viability, T/C (second compound 0.1 µM, first compound 3.16 µM) 99.7% | viability, T/C (second compound 0.1 µM, first compound 10 µM) 87% | viability, T/C (second compound 0.316 µM, first compound 0.0316 µM) 98.3% | viability, T/C (second compound 0.316 µM, first compound 0.1 µM) 96.9% | viability, T/C (second compound 0.316 µM, first compound 0.316 µM) 101% | viability, T/C (second compound 0.316 µM, first compound 1 µM) 102% | viability, T/C (second compound 0.316 µM, first compound 3.16 µM) 88.3% | viability, T/C (second compound 0.316 µM, first compound 10 µM) 83.4% | viability, T/C (second compound 1 µM, first compound 0.0316 µM) 94.4% | viability, T/C (second compound 1 µM, first compound 0.1 µM) 94% | viability, T/C (second compound 1 µM, first compound 0.316 µM) 99.2% | viability, T/C (second compound 1 µM, first compound 1 µM) 100% | viability, T/C (second compound 1 µM, first compound 3.16 µM) 90.7% | viability, T/C (second compound 1 µM, first compound 10 µM) 83.6% | viability, T/C (second compound 3.16 µM, first compound 0.0316 µM) 91.5% | viability, T/C (second compound 3.16 µM, first compound 0.1 µM) 86.5% | viability, T/C (second compound 3.16 µM, first compound 0.316 µM) 93.2% | viability, T/C (second compound 3.16 µM, first compound 1 µM) 96.5% | viability, T/C (second compound 3.16 µM, first compound 3.16 µM) 87.9% | viability, T/C (second compound 3.16 µM, first compound 10 µM) 81% | viability, T/C (second compound 10 µM, first compound 0.0316 µM) 90% | viability, T/C (second compound 10 µM, first compound 0.1 µM) 81.4% | viability, T/C (second compound 10 µM, first compound 0.316 µM) 83.9% | viability, T/C (second compound 10 µM, first compound 1 µM) 79.5% | viability, T/C (second compound 10 µM, first compound 3.16 µM) 89.9% | viability, T/C (second compound 10 µM, first compound 10 µM) 76.1%
> 10000 nM: IC50 [2] | IC50 [3] | IC50 [4] | IC50 [5] | IC50 (curve of first compound, second compound 3.16 µM) | IC50 (curve of first compound, second compound 10 µM)
